Reference: patent publication US20260130901A1, “CGRP RECEPTOR ANTAGONIST FOR THE TREATMENT OF MIGRAINE” (ALLERGAN PHARMACEUTICALS INTERNATIONAL LIMITED, priority 2022, published 2026)

System: participants with migraine (qualifying prodrome events)
Experiment: Phase 3 crossover study: absence of aura at timepoints post dose
Type: in vivo, human
Conditions: 100 mg in prodrome, mITT
Description: A phase 3, multicenter, randomized, double-blind, placebo-controlled, crossover study was carried out to evaluate the efficacy, safety, and tolerability of oral ubrogepant in the acute treatment of migraine when administered during the prodrome. The study evaluated whether treatment during the initial phase of a migraine attack (i.e., the prodrome or premonitory phase) prior to the onset of headache, can attenuate the severity of the headache phase and reduce disability.
Eligible participants were randomized (1:1) to treatment sequences A or B in this crossover study. Participants randomized to Treatment Sequence A received placebo to treat their first qualifying prodrome event and ubrogepant 100 mg to treat their second qualifying prodrome event. For those randomized to Treatment Sequence B, they received the reverse: ubrogepant 100 mg to treat their first qualifying prodrome event and placebo to treat their second qualifying prodrome event.
N1 is the number of patients with non-missing aura presence assessment at timepoint.

With `C[C@@H]1[C@H](c2ccccc2)C[C@H](NC(=O)c2cnc3c(c2)C[C@@]2(C3)C(=O)Nc3ncccc32)C(=O)N1CC(F)(F)F` [Ubrogepant, (3′S)—N-((3S,5S,6R)-6-methyl-2-oxo-5-phenyl-1-(2,2,2-trifluoroethyl)piperidin-3-yl)-2′-oxo-1′,2′,5,7-tetrahydrospiro[cyclopenta[b]pyridine-6,3′-pyrrolo[2,3-b]pyridine]-3-carboxamide] the “Absence of aura, Nonresponder (%)” value (48 Hours post dose) was “(2.6) %”, the “Absence of aura, OR vs placebo” value (48 Hours post dose) was 3.05 and the “Absence of aura, Responder (%)” value (48 Hours post dose) was “(97.4) %”. The “Absence of aura, Nonresponder (%)” value (1 hour post dose) was “(38.3) %”, the “Absence of aura, OR vs placebo” value (1 hour post dose) was 0.99 and the “Absence of aura, Responder (%)” value (1 hour post dose) was “(61.7) %”. The “Absence of aura, Nonresponder (%)” value (2 hours post dose) was “(28.1) %”, the “Absence of aura, OR vs placebo” value (2 hours post dose) was 1.13 and the “Absence of aura, Responder (%)” value (2 hours post dose) was “(71.9) %”. For the same compound, the “Absence of aura, Nonresponder (%)” value (3 hours post dose) was “(23.0) %”, the “Absence of aura, OR vs placebo” value (3 hours post dose) was 0.96 and the “Absence of aura, Responder (%)” value (3 hours post dose) was “(77.0) %”. For the same compound, the “Absence of aura, Nonresponder (%)” value (4 hours post dose) was “(19.1) %”, the “Absence of aura, OR vs placebo” value (4 hours post dose) was 1.12 and the “Absence of aura, Responder (%)” value (4 hours post dose) was “(80.9) %”. The “Absence of aura, Nonresponder (%)” value (6 hours post dose) was “(15.3) %”, the “Absence of aura, OR vs placebo” value (6 hours post dose) was 1.05 and the “Absence of aura, Responder (%)” value (6 hours post dose) was “(84.7) %”. For the same compound, the “Absence of aura, Nonresponder (%)” value (8 hours post dose) was “(10.5) %”, the “Absence of aura, OR vs placebo” value (8 hours post dose) was 1.10 and the “Absence of aura, Responder (%)” value (8 hours post dose) was “(89.5) %”. The “Absence of aura, Nonresponder (%)” value (24 hours post dose) was “(5.3) %”, the “Absence of aura, OR vs placebo” value (24 hours post dose) was 1.48 and the “Absence of aura, Responder (%)” value (24 hours post dose) was “(94.7) %”.
